Source: patent publication US9078444B2, “Isothiazoline derivatives as insecticidal compounds” (Syngenta Participations AG, priority 2011, dated 2015)
Where two headings read alike, the source gives them in different places.

Experiments:
Type in all cases: in vivo
[1] = system: Plutella xylostella; experiment: Plutella xylostella (diamond back moth) artificial diet test; details: 144 h, 200 ppm (concentration in well 18 ppm), L2 larvae, larval mortality and growth regulation after 6 days
Procedure: (§1) Plutella xylostella (Diamond Back Moth): 24-well microtiter plate (MTP) with artificial diet was treated with test solutions at an application rate of 200 ppm (concentration in well 18 ppm) by pipetting. After drying, the MTPs were infested with L2 larvae (7-12 per well). After an incubation period of 6 days, samples were checked for larval mortality and growth regulation.

[2] = system: Spodoptera littoralis; experiment: Spodoptera littoralis persistence test on sprayed cotton plants (increased safety profile / bio-degradability); details: Spodoptera littoralis, 12.5 ppm on cotton plants, 10 L3 larvae, mortality after 6 days incubation
Procedure: Biological Examples Showing Increased Safety Profile:
Spodoptera littoralis (Egyptian Cotton Leafworm)
Cotton plants in the 5th leaf stage (around 5 weeks old) are treated in an automated turn table spray chamber. Plants are stored in the greenhouse length during the whole test period.
2, 16 and optionally 10 days after treatment 4 leaves from each sample are excised, placed into 14 cm plastic petri dishes on wet filter paper. The infestation of 10 L3-Spodoptera littoralis is made immediately afterwards. After an incubation period of 6 days the samples are checked for mortality.
In the following series of experiments the compounds of the invention are compared with the corresponding isoxazoline analogues from the prior art on Spodoptera littoralis (Egyptian cotton leafworm) performed as described in the method above.

[3] = system: Spodoptera littoralis; experiment: Spodoptera littoralis (Egyptian cotton leafworm) cotton leaf disc test; details: foliar, 72 h, 200 ppm sprayed on cotton leaf discs, mortality, feeding behavior, growth regulation 3 days after treatment
Procedure: Spodoptera littoralis (Egyptian Cotton Leafworm): Cotton leaf discs were placed on agar in a 24-well microtiter plate and sprayed with test solutions at an application rate of 200 ppm. After drying, the leaf discs were infested with […]. The samples were checked for mortality, feeding behavior, and growth regulation 3 days after treatment (DAT).

[4] = system: Heliothis virescens; experiment: Heliothis virescens (tobacco budworm) egg test on artificial diet; details: 96 h, 200 ppm (concentration in well 18 ppm), eggs on artificial diet, egg mortality, larval mortality, growth regulation after 4 days
Procedure: Heliothis virescens (Tobacco Budworm): Eggs (0-24 h old) were placed in 24-well microtiter plate on artificial diet and treated with test solutions at an application rate of 200 ppm (concentration in well 18 ppm) by pipetting. After an incubation period of 4 days, samples were checked for egg mortality, larval mortality, and growth regulation.

[5] = system: Thrips tabaci; experiment: Thrips tabaci (onion thrips) sunflower leaf disc test; details: foliar, 168 h, 200 ppm sprayed on sunflower leaf discs, mixed ages, mortality after 7 days
Procedure: Thrips tabaci (Onion Thrips): Sunflower leaf discs were placed on agar in a 24-well microtiter plate and sprayed with test solutions at an application rate of 200 ppm. After drying, the leaf discs were infested with a thrips population of mixed ages. After an incubation period of 7 days, samples were checked for mortality.

[6] = system: Diabrotica balteata; experiment: Diabrotica balteata (corn root worm) artificial diet test; details: 120 h, 200 ppm (concentration in well 18 ppm), L2 larvae, larval mortality and growth regulation after 5 days
Procedure: as §1, with “Diabrotica balteata (Corn Root Worm): A” for “Plutella xylostella (Diamond Back Moth):”, “(6-10” for “(7-12”, “5” for “6”

[7] = system: Tetranychus urticae; experiment: Tetranychus urticae (two-spotted spider mite) bean leaf disc test; details: foliar, 192 h, 200 ppm sprayed on bean leaf discs, mixed ages, egg, larval and adult mortality 8 days later
Text: Tetranychus urticae (Two-Spotted Spider Mite): Bean leaf discs on agar in 24-well microtiter plates were sprayed with test solutions at an application rate of 200 ppm. After drying, the leaf discs are infested with mite populations of mixed ages. 8 days later, discs are checked for egg mortality, larval mortality, and adult mortality.

[8] = 48 h, leaves excised 2 days after treatment, read-out: Control after 2 days/%
[9] = 384 h, leaves excised 16 days after treatment, read-out: Control after 16 days/%

Compound | pest or weed control at 200 ppm [1] [%] | pest or weed control at 12.5 ppm [2, 8] [%] | pest or weed control at 12.5 ppm [2, 9] [%] | pest or weed control at 200 ppm [3] [%] | pest or weed control at 200 ppm [4] [%] | pest or weed control at 200 ppm [5] [%] | pest or weed control at 200 ppm [6] [%] | pest or weed control at 200 ppm [7] [%]
CO/N=C/NC(=O)c1ccc(C2=NSC(c3cc(Cl)cc(Cl)c3)(C(F)(F)F)C2)cc1C (stereo not drawn) [Compound C1, 4-[5-(3,5-dichlorophenyl)-5-(trifluoromethyl)-4H-isothiazol-3-yl]-N-[(E)-methoxyiminomethyl]-2-methyl-benzamide] | ≥ 80 | 100 | 5 | ≥ 80 | ≥ 80 | ≥ 80 | ≥ 80 | ≥ 80
CO/N=C/NC(=O)c1ccc(C2=NSC(c3cc(Cl)cc(Cl)c3)(C(F)(F)F)C2)cc1Cl (stereo not drawn) [Compound C3, 2-chloro-4-[5-(3,5-dichlorophenyl)-5-(trifluoromethyl)-4H-isothiazol-3-yl]-N-[(E)-methoxyiminomethyl]benzamide] | ≥ 80 | 100 | 0 | ≥ 80 | ≥ 80 | ≥ 80 | ≥ 80 | ≥ 80
Cc1cc(C2=NSC(c3cc(Cl)c(Cl)c(Cl)c3)(C(F)(F)F)C2)ccc1C(=O)NCC(=O)NCC(F)(F)F (stereo not drawn) [Compound D1, 2-methyl-N-[2-oxo-2-(2,2,2-trifluoroethylamino)ethyl]-4-[5-(3,4,5-trichlorophenyl)-5-(trifluoromethyl)-4H-isothiazol-3-yl]benzamide] | ≥ 80 | 100 | 10 | ≥ 80 | ≥ 80 | ≥ 80 | ≥ 80 | ≥ 80
